Here are results for twelve compounds from US8476265B2, “Compounds-801” (AstraZeneca AB, priority 2010, dated 2013).

Experiment [1] concerns the target T1, Adrenergic β2 (Homo sapiens, UniProt P07550).
T1 construct: Adherent H292 cells are removed from tissue culture flasks by treatment with Accutase™ cell detachment solution; endogenous in cells; host or cells: H292 cells
Description: Adrenergic β2 mediated cAMP production in H292 cells, single concentration 1 μM. The experiment is classed as cell-based. To be noted: cAMP as percentage of the maximum response generated by 1E-07M formoterol; for percent of formoterol maximum response at 1 µM: NCI-H292, 1 μM compound, read-out: β2 % effect @1 uM; for β2 % effect @1 uM: 1 μM compound. On the procedure:
The following experimental procedure was used to measure the beta-2% effect at 1 μM for the compounds of Examples 99-175. Adrenergic p2 Mediated cAMP Production Cell Preparation
H292 cells are grown in 225 cm2 flasks incubator at 37° C., 5% CO2 in RPMI medium containing 10% (v/v) FBS (foetal bovine serum) and 2 mM L-glutamine.
Compounds are prepared by an initial first dilution into DMSO to give 1 mM stock concentration. This is followed by a 1 in 10 dilution of the stock concentration (10 μl stock compound +90 μl DMSO) to give 0.1 mM compound. A compound addition plate is prepared by making a further 1 in 25 dilution in assay buffer (HBSS solution containing 10 mM HEPES pH7.4 and 5 mM glucose) containing 4% dimethylsulfoxide. The final compound concentration in assay is 1 μM.
Adherent H292 cells are removed from tissue culture flasks by treatment with Accutase™ cell detachment solution for 15 minutes. Flasks are incubated for 15 minutes in a humidified incubator at 37° C., 5% CO2. Detached cells are re-suspended in RPMI media (containing 10% (v/v) FBS and 2 mM L-glutamine) at 0.1×10^6 cells per mL. 10000 cells in 100 μL are added to each well of a tissue-culture-treated 96-well plate and the cells incubated overnight in a humidified incubator at 37° C., 5% CO2. The culture media is removed and cells are washed twice with 100 μL assay buffer and replaced with 50 μL assay buffer (HBSS solution containing 10 mM HEPES pH7.4 and 5 mM glucose). Cells are rested at room temperature for 20 minutes after which time 25 μL of rolipram (1.2 mM made up in assay buffer) is added. Cells are incubated with rolipram for 10 minutes after which time 25 μl test compounds are added and the cells are incubated for 60 minutes at room temperature. The final rolipram concentration in the assay is 300 μM and final vehicle concentration is 1% (v/v) dimethylsulphoxide. The reaction is stopped by removing supernatants, washing once with 100 μL assay buffer and replacing with 50 μL lysis buffer. The cell monolayer is frozen at −80° C. for 30 minutes (or overnight).
AlphaScreen™ cAMP Detection
The concentration of cAMP (cyclic adenosine monophosphate) in the cell lysate is determined using AlphaScreen™ methodology. The frozen cell plate is thawed for 20 minutes on a plate shaker then 10 μL of the cell lysate is transferred to a 96-well white plate. 40 μl of mixed AlphaScreen™ detection beads (containing equal volumes of donor beads (pre-incubated with biotinylated cAMP in the dark for 30 minutes) and acceptor beads is added to each well and the plate incubated at room temperature for 3 hours in the dark. The AlphaScreen™ signal is measured using an EnVision spectrophotometer (Perkin-Elmer Inc.) with the recommended manufacturer's settings. Concentration of cAMP produced per well were calculated with reference to the cAMP standard curve determined in the same experiment and expressed as a percentage of the maximum response generated by 1E-07M formoterol.
A general note: cAMP levels reflect the balance of adenylyl cyclase and phosphodiesterase activity.

The target in experiment [2] is T2, human muscarinic acetylcholine M3 receptor (Homo sapiens, UniProt P20309).
T2 construct: expressed in transfected cells; host or cells: CHO-K1 (Chinese Hamster Ovary) cell membranes
T2 sequence (P20309 whole entry): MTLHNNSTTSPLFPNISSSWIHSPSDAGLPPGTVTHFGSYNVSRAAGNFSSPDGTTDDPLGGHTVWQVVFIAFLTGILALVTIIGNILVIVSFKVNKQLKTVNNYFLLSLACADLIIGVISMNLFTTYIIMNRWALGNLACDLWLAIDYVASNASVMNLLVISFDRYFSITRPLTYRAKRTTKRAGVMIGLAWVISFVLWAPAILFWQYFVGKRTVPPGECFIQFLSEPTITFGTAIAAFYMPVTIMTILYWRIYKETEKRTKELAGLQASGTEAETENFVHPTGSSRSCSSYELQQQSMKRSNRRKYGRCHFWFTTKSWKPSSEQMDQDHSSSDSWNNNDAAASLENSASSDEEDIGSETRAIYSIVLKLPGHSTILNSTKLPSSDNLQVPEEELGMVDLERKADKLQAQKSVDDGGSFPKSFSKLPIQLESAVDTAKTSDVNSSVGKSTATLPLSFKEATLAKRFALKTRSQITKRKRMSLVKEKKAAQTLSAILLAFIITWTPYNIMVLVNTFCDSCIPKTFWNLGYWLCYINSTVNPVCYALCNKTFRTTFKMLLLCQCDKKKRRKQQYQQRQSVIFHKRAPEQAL
Nature of the experiment: Muscarinic 3 receptor binding assay ([3H]NMS competition, SPA), single concentration 1 μM. To be noted: 1 μM compound; % inhibition specific [3H]-NMS binding. The procedure:
The following experimental procedure was used to determine the M3% inhibition at 1 μM of the compounds of Examples 99-175
Muscarinic 3 Receptor Binding Assay
The activity (% inhibition specific binding) of compounds on the M3 receptor is determined by competition binding of [^3H]N-methyl scopolamine (NMS) to CHO-K1 (Chinese Hamster Ovary) cell membranes expressing the human muscarinic acetylcholine M3 receptor (M3-ACh) in a scintillation proximity assay (SPA) format. SPA beads are precoated with membranes and then incubated at 2 mg of beads per well with 1 μM compound of the invention, [^3H]NMS at 0.1 nM, quarter Kd (experimentally determined dissociation constant) and assay buffer (20 mM HEPES pH 7.4 containing 5 mM MgCl2 and 0.1% (w/v) bovine serum albumin). The assay is conducted in a final volume of 200 μL, in the presence of 1% (v/v) dimethyl sulphoxide (DMSO). Total binding of [^3H]NMS is determined in the absence of competing compound and non-specific binding of [^3H]NMS is determined in the presence of 1 μM atropine. The plates are incubated for 16 hours at room temperature and then read on Wallac Microbeta™ using a normalised ^3H protocol. The compound activity at 1 μM, defined as % inhibition specific [^3H]-NMS binding, is determined.

T1 sequence (P07550 whole entry): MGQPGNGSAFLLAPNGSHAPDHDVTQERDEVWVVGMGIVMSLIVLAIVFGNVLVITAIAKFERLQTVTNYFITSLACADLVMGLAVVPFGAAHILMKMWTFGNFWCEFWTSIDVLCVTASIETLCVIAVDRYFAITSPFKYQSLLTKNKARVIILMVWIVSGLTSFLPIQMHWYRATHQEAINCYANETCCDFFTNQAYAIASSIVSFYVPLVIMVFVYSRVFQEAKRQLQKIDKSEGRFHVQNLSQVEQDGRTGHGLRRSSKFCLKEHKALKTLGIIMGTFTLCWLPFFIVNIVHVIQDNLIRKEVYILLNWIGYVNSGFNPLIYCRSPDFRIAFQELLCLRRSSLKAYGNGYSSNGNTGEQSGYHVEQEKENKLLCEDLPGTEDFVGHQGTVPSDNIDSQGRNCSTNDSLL

In general, inhibition refers to the change of the read-out against control, counted positive when it falls. In the case of `O=C1COc2c(CCNCCN(C(=O)CCOCCc3cccc(CN4CCC5(CC4)CN(C(=O)C(CO)c4ccccc4)CCO5)c3)C3CCCCC3)ccc(O)c2N1` (stereo not drawn) [Example 104, N-Cyclohexyl-3-(3-((4-(3-hydroxy-2-phenylpropanoyl)-1-oxa-4,9-diazaspiro[5.5]undecan-9-yl)methyl)phenethoxy)-N-(2-(2-(5-hydroxy-3-oxo-3,4-dihydro-2H-benzo[b][1,4]oxazin-8-yl)ethylamino)ethyl)propanamide], the percent of formoterol maximum response at 1 µM in experiment [1] worked out at 100%. Moreover, the inhibition at 1 µM in experiment [2] came to 101%.
Regarding `O=C1COc2c(CCNCCN(C(=O)CCOCCc3cccc(CN4CCC5(CC4)CN(C(=O)C46CC7CC(F)(CC(F)(C7)C4)C6)CCO5)c3)C3CCCCC3)ccc(O)c2N1` [Example 143], in experiment [1], the “β2 % effect @1 uM” value stood at 105%. The “M3 % inhibition @1 uM” value in experiment [2] is listed as 101%.
With `CCOc1ncccc1C(=O)N1CCOC2(CCN(Cc3cccc(CCOCCC(=O)N(CCNCCc4ccc(O)c5c4OCC(=O)N5)C4CCCCC4)c3)CC2)C1` [Example 101, N-Cyclohexyl-3-(3-((4-(2-ethoxynicotinoyl)-1-oxa-4,9-diazaspiro[5.5]undecan-9-yl)methyl)phenethoxy)-N-(2-(2-(5-hydroxy-3-oxo-3,4-dihydro-2H-benzo[b][1,4]oxazin-8-yl)ethylamino)ethyl)propanamide], in experiment [1], the percent of formoterol maximum response at 1 µM came to 105%. Moreover, in experiment [2], the inhibition at 1 µM worked out at 95%.
With `CCCC(C)C(=O)N1CCOC2(CCN(Cc3cccc(CCOCCC(=O)N(CCNCCc4ccc(O)c5c4OCC(=O)N5)C4CCCCC4)c3)CC2)C1` (stereo not drawn) [Example 160, N-Cyclohexyl-N-(2-(2-(5-hydroxy-3-oxo-3,4-dihydro-2H-benzo[b][1,4]oxazin-8-yl)ethylamino)ethyl)-3-(3-((4-(2-methylpentanoyl)-1-oxa-4,9-diazaspiro[5.5]undecan-9-yl)methyl)phenethoxy)propanamide], the percent of formoterol maximum response at 1 µM in experiment [1] was determined as 79%. Also, in experiment [2], the inhibition at 1 µM came out at 99%.
With `O=C1COc2c(CCNCCN(C(=O)CCOCCc3cccc(CN4CCC5(CC4)CN(C(=O)c4n[nH]cc4Cl)CCO5)c3)C3CCCCC3)ccc(O)c2N1` [Example 133, 3-(3-((4-(4-Chloro-1H-pyrazole-3-carbonyl)-1-oxa-4,9-diazaspiro[5.5]undecan-9-yl)methyl)phenethoxy)-N-cyclohexyl-N-(2-(2-(5-hydroxy-3-oxo-3,4-dihydro-2H-benzo[b][1,4]oxazin-8-yl)ethylamino)ethyl)propanamide], the percent of formoterol maximum response at 1 µM in experiment [1] came to 83%. For the same compound, the inhibition at 1 µM in experiment [2] worked out at 101%.
Consider `O=C1COc2c(CCNCCN(C(=O)CCOCCc3cccc(CN4CCC5(CC4)CN(C(=O)CC4(O)CCCCCC4)CCO5)c3)C3CCCCC3)ccc(O)c2N1` [Example 148, N-Cyclohexyl-N-(2-(2-(5-hydroxy-3-oxo-3,4-dihydro-2H-benzo[b][1,4]oxazin-8-yl)ethylamino)ethyl)-3-(3-((4-(2-(l-hydroxycycloheptyl)acetyl)-1-oxa-4,9-diazaspiro[5.5]undecan-9-yl)methyl)phenethoxy)propanamide], for which the “β2 % effect @1 uM” value in experiment [1] is reported as 108%. Further, the “M3 % inhibition @1 uM” value in experiment [2] was found to be 95%.
Regarding `Cc1cc2ncc(C(=O)N3CCOC4(CCN(Cc5cccc(CCOCCC(=O)N(CCNCCc6ccc(O)c7c6OCC(=O)N7)C6CCCCC6)c5)CC4)C3)c(C)n2n1` [Example 108, N-Cyclohexyl-3-(3-((4-(2,7-dimethylpyrazolo[1,5-a]pyrimidine-6-carbonyl)-1-oxa-4,9-diazaspiro[5.5]undecan-9-yl)methyl)phenethoxy)-N-(2-(2-(5-hydroxy-3-oxo-3,4-dihydro-2H-benzo[b][1,4]oxazin-8-yl)ethylamino)ethyl)propanamide], the percent of formoterol maximum response at 1 µM in experiment [1] worked out at 98%. Further, in experiment [2], the inhibition at 1 µM amounted to 80%.
`O=C1COc2c(CCNCCN(C(=O)CCOCCc3cccc(CN4CCC5(CC4)CN(C(=O)CC46CC7CC(CC(O)(C7)C4)C6)CCO5)c3)C3CCCCC3)ccc(O)c2N1` [Example 116, N-Cyclohexyl-3-[2-[3-[[10-[2-(3-hydroxy-1-adamantyl)acetyl]-7-oxa-3,10-diazaspiro[5.5]undecan-3-yl]methyl]phenyl]ethoxy]-N-[2-[2-(5-hydroxy-3-oxo-4H-1,4-benzoxazin-8-yl)ethylamino]ethyl]propanamide]: the percent of formoterol maximum response at 1 µM in experiment [1] worked out at 80%. The inhibition at 1 µM in experiment [2] amounted to 94%.
Taken in the same sequence, the figures for `CC(C)C[C@H](O)C(=O)N1CCOC2(CCN(Cc3cccc(CCOCCC(=O)N(CCNCCc4ccc(O)c5c4OCC(=O)N5)C4CCCCC4)c3)CC2)C1` [Example 137, (S)-N-Cyclohexyl-N-(2-(2-(5-hydroxy-3-oxo-3,4-dihydro-2H-benzo[b][1,4]oxazin-8-yl)ethylamino)ethyl)-3-(3-((4-(2-hydroxy-4-methylpentanoyl)-1-oxa-4,9-diazaspiro[5.5]undecan-9-yl)methyl)phenethoxy)propanamide] were 88% and 100%.
Consider `O=C1COc2c(CCNCCN(C(=O)CCOCCc3cccc(CN4CCC5(CC4)CN(C(=O)c4ccc(-n6cccn6)cc4)CCO5)c3)C3CCCCC3)ccc(O)c2N1` [Example 122, 3-(3-((4-(4-(1H-Pyrazol-1-yl)benzoyl)-1-oxa-4,9-diazaspiro[5.5]undecan-9-yl)methyl)phenethoxy)-N-cyclohexyl-N-(2-(2-(5-hydroxy-3-oxo-3,4-dihydro-2H-benzo[b][1,4]oxazin-8-yl)ethylamino)ethyl)propanamide], for which the percent of formoterol maximum response at 1 µM in experiment [1] came out at 87%. Further, the inhibition at 1 µM in experiment [2] is 84%.
Taken in the same sequence, the figures for `O=C1COc2c(CCNCCN(C(=O)CCOCCc3cccc(CN4CCC5(CC4)CN(C(=O)CCc4nc6ccccc6[nH]4)CCO5)c3)C3CCCCC3)ccc(O)c2N1` [Example 103, 3-(3-((4-(3-(1H-Benzo[d]imidazol-2-yl)propanoyl)-1-oxa-4,9-diazaspiro[5.5]undecan-9-yl)methyl)phenethoxy)-N-cyclohexyl-N-(2-(2-(5-hydroxy-3-oxo-3,4-dihydro-2H-benzo[b][1,4]oxazin-8-yl)ethylamino)ethyl)propanamide] were 109% and 90%.
For the compound `O=C1COc2c(CCNCCN(C(=O)CCOCCc3cccc(CN4CCC5(CC4)CN(C(=O)c4cncc(Br)c4)CCO5)c3)C3CCCCC3)ccc(O)c2N1` [Example 102, 3-(3-((4-(5-Bromonicotinoyl)-1-oxa-4,9-diazaspiro[5.5]undecan-9-yl)methyl)phenethoxy)-N-cyclohexyl-N-(2-(2-(5-hydroxy-3-oxo-3,4-dihydro-2H-benzo[b][1,4]oxazin-8-yl)ethylamino)ethyl)propanamide], the percent of formoterol maximum response at 1 µM in experiment [1] stood at 108%. The inhibition at 1 µM in experiment [2] came out at 99%.
